According to US20220162610A1, “NOVEL RNA TRANSCRIPT” (PTC Therapeutics, Inc., priority 2020, published 2022):

Columns and labels:
[1] = Unbound brain partition coefficient (Kp,uu) from mouse PK studies; format: in vivo; conditions: FVB (WT littermates of the BACHD colony), brain and plasma (unbound), oral, 10 mg/kg, average over animals of multiple mouse PK studies
Protocol: Oral pharmacokinetics (PK) of compounds was evaluated in WT littermates from the BACHD colony (FVB background). Mice were treated with test compounds (10 mg/kg) by oral gavage in 0.5% hydroxypropylmethyl cellulose (HPMC) with 0.1% Tween 80. Blood was collected by terminal cardiac puncture at specified time points (3 mice per time point) and centrifuged to generate plasma. Brain tissue was collected at the time of blood collection and homogenized in water. Protein was precipitated from plasma and brain homogenates with acetonitrile, methanol mixture (5:1, v:v) containing an internal standard that is a close analog of the test compounds. The mixture was filtered through an EMD Millipore MultiScreen™ Solvinert Filter Plate (MSRLN04, Millipore, Burlington, Mass.). Calibration standards were prepared in the same matrix and processed with the testing samples. Filtrates were analysed using Acquity ultra performance liquid chromatography (UPLC) system (Waters Corporation) tandem with Xevo TQ-s Spectrometer (Waters Corporation). Samples were injected on to a Waters UPLC Acquity BEH C18 Column (2.1*50 mm, 1.7 μm) maintained at 50° C. The injection volume was 3 μL and the mobile phase flow rate was 0.45 mL/min. The mobile phase consisted of 2 solvents: A) 0.1% formic acid in water and B) 0.1% formic acid in acetonitrile. The initial mobile phase started with 5% solvent B for 0.4 min, which was changed to […] over 0.8 min with linear gradients and then maintained at 95% solvent B for another 0.4 min. The drug concentrations were acquired and processed with MassLynx 4.1 software. PK parameters were estimated using the non-compartment method within Phoenix® WinNonlin® Build 8.1 (Certara USA, Inc., Princeton, N.J.).
The unbound brain partition coefficient (Kp,uu) is defined as the ratio between unbound brain free drug concentration and unbound plasma concentration. It was calculated using the following equation:
Kp,uu=Cbrain×fu,b/(Cplasma*fu,p)
Cbrain and Cplasma represent the compound concentrations in brain and plasma, respectively. fu,b and fu,p are the unbound fraction of each testing article in brain and plasma, respectively. Both fu,b and fu,p were determined in vitro using Pierce Rapid Equilibrium Dialysis (RED) device at Absorption System LLC (Exton, Pa.). Kp,uu was calculated individually for each animal from multiple mouse PK studies and the average values are reported here.

HTT pre-mRNA = experiment: Ampliseq/RNAseq analysis of intron 49 pseudoexon inclusion and HTT expression in different cell types; format: cell-based, human
MDR1 = target: T1, MDR1 (Homo sapiens, UniProt P08183); experiment: MDCK-MDR1 efflux assay; format: in vitro ADME; conditions: 10 μM, MDCK-MDR1 and MDCK-WT monolayers, 1 hour
T1 construct: host or cells: MDCK (Madin-Darby Canine Kidney) cells expressing MDR1
Protocol: The MDR1 efflux assay was conducted at Absorption System LLC (Exton, Pa.). Briefly, MDCK-MDR1 and MDCK-WT cell monolayers were grown to confluence on collagen-coated, microporous membranes in 12-well assay plates (Thermofisher). Compound solutions (10 μM) in permeability assay buffer (Hanks' balanced salt solution (HBSS), 10 mM HEPES, 15 mM glucose; pH of 7.4) were placed in the donor chamber. The receiver chamber was filled with assay buffer plus 1% BSA. Cell monolayers were dosed on the apical side (A-to-B) or basolateral side (B-to-A) and incubated at 37° C. (5% CO2, 100% relative humidity). Sampling from the donor chambers was performed at 0 and 1 hour; and from the receiver chambers at 1 hour. Each determination was performed in duplicate. The flux of lucifer yellow was also measured post-experimentally for each monolayer to ensure no damage was inflicted to the cell monolayers during the flux period. All samples were assayed by LC-MS/MS using electrospray ionisation. The apparent permeability (Papp) and percent recovery was determined using the following equation: […]
dCr/dt represents the slope of the cumulative receiver concentration versus time in μM/s; Vr is the volume of the receiver compartment (cm3); Vd is the volume of the donor compartment in (cm3); A is the area of the insert (1.13 cm2 for 12-well); C0 is the average measured concentration of the donor chamber at time zero in μM; Net Efflux ratio (ER) is defined as […].

HTT protein = HTT protein electrochemiluminescence (ECL) assay in HD patient fibroblasts, 96 h; format: cell-based, human; conditions: fibroblasts derived from HD patients, 96 h
Protocol: Human fibroblasts derived from a homozygous patient with HD (GM4857) were cultured for 96 hours in the presence of test compounds (in 0.5% DMSO) or controls at 37° C. in a humidified 5% CO2 atmosphere. After 96 hours, cells were lysed and frozen. HTT protein levels were measured in lysates as described below. Compounds that decreased HTT protein levels relative to DMSO control were further tested in a dose response assay.
For analysis in the electrochemiluminescence (ECL) assays, test compounds were serially diluted 3-fold in 100% DMSO (Sigma) to generate a 7-point concentration curve. A solution of test compound (500 nL, 200× in DMSO) was added to each test well with Acoustic Transfer System (EDC Biosystems); final concentration of DMSO was 0.5%. Fibroblasts were seeded in 96-well flat-bottomed plates (Thermo Fisher) at 4×10^3 cells/well in 100 μl of culture medium containing the test compound or DMSO vehicle control and incubated for 96 hours (37° C., 5% CO2, 100% relative humidity). After removal of the supernatant, cells were lysed in 50 μL of 1×LB11 extraction buffer (50 mM Tris (pH 7.4), 300 mM NaCl, 10% [w/v] glycerol, 3 mM EDTA, 1 mM MgCl2, 20 mM glycerophosphate, 25 mM NaF, 1% Triton X-100), containing a Complete™ protease inhibitor cocktail (Roche Diagnostics) with shaking at 4° C. for 30 minutes; the plates were then stored at −20° C.
Meso Scale Discovery® 96-well plates (MSD®) were coated overnight at 4° C. with primary antibodies in phosphate-buffered saline (PBS; 30 μl/well). The plates were washed three times with 0.05% Tween-20 in 1×PBS (PBS-T; 200 μl/well) then blocked (100 μl/well; 5% bovine serum albumin [BSA] in PBS-T) for 5-6 hours at room temperature (RT) with shaking. Plates were then washed three times with PBS-T. Cell lysates were transferred to the antibody coated plates (25 μl/well) and incubated with shaking overnight at 4° C. After removal of the lysates, the plates were washed three times with PBS-T, and 25 μl of detection antibody in 1% BSA, PBS-T was added to each well and incubated with shaking for 1 hour at room temperature. After three washes with PBS-T, 25 μl of Sulfo-Tag secondary antibody (MSD®; 0.25 μg/ml in 1% BSA, PBS-T) was added to each well and incubated with shaking for 1 hour at RT. After washing three times with PBS-T, 150 μl of read buffer T with surfactant (MSD®) was added to each empty well and the plate was imaged on the SI 6000 imager (MSD®) according to manufacturers' instructions for 96-well plates. Primary capture antibodies included: anti-polyglutamine-expanded HTT mouse monoclonal antibody (mAb) clone MW1 (1 μg/mL; Developmental Studies Hybridoma Bank); anti-HTT MAB2166 mAb (1 μg/mL; Millipore); anti-human KRAS rabbit polyclonal antibody (1 μg/mL; Thermo Fisher Scientific). Detection antibodies included: Huntingtin (D7F7) XP® Rabbit mAb (0.25 μg/ml; Cell Signalling Technology®); anti-hKRAS mouse mAb (0.25 μg/ml; LSBIO).

T1 sequence (P08183 whole entry): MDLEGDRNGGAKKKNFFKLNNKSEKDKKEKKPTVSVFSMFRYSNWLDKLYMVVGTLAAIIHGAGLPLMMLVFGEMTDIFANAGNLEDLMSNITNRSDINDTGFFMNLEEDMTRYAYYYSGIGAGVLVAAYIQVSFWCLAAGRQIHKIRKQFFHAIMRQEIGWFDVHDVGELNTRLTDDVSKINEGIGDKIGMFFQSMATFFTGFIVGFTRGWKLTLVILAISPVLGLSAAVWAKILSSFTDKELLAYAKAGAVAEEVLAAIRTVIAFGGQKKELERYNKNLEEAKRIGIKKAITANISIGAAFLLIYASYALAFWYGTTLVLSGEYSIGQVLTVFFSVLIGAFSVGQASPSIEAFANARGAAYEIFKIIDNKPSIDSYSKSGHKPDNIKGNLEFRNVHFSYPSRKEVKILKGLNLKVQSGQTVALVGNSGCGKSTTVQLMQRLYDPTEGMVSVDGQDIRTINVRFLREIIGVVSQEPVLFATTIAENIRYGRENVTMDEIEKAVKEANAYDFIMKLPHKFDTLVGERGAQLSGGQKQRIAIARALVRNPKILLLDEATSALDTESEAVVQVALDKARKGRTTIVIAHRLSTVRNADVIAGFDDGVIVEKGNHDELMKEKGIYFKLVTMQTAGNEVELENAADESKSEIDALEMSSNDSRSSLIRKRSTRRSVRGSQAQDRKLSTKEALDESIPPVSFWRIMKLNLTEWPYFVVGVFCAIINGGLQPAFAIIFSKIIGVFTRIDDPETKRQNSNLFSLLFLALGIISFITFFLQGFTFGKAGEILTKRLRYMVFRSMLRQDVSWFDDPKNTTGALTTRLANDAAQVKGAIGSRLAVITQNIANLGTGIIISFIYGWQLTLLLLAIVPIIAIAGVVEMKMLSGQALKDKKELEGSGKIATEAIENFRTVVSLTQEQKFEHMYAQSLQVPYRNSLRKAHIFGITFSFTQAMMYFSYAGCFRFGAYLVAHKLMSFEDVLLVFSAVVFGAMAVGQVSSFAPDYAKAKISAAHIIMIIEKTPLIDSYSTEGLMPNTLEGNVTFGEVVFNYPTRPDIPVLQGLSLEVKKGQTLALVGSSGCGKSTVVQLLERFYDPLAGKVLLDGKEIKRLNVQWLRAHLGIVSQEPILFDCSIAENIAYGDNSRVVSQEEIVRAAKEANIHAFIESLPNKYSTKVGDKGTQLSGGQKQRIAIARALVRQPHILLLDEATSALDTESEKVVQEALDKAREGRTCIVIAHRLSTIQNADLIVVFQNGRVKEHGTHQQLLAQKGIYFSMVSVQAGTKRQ

Structure (SMILES) | Kp uu [1] | HTT gene expression quantified using RNAseq (FPKM) (HTT pre-mRNA; 100 nM, SHSY5Y cells (HTT-C2), TK6 cells (HTT-C3)) | inclusion of intron 49 pseudoexon (HTT pre-mRNA; HD fibroblasts, SH-SY5Y, TK6, MRC-5 cells) | NET MDR1 ER (MDR1) | HTT protein level (HTT protein)
CC1(C)CC(n2nnc3cc(-c4ccc(-n5nccn5)cc4O)nnc32)CC(C)(C)N1 [HTT-C3] | 0.848 | reduced HTT gene expression | induced the inclusion of an Intron 49 pseudoexon | 2.0 | –
CC(C)c1cc(-c2n[nH]cc2-c2ccc3c(c2)OCO3)c(O)cc1O [HTT-A] | – | – | – | – | lower HTT protein levels
Cn1c(/C=C/c2ccc(Cl)cc2)c([N+](=O)[O-])c(=O)n(C)c1=O [HTT-B] | – | – | – | – | lower HTT protein levels
